The text below walks through data of ChEMBL document CHEMBL1129258, “Synthesis and structure-activity relationships of 2-pyridones: a novel series of potent DNA gyrase inhibitors as antibacterial agents” (J Med Chem, 1996).

Molecules are shown by their SMILES. Values after ≈ are worked out from the molar mass of the structure shown. A value given as a limit tells only on which side of the number the result lay.

The target of assay [1] is T1, DNA gyrase (Escherichia coli) (UniProt P0AES6+P0AES4). The experiment in a line: In vitro antibacterial activity against gram-negative organism […] ATCC 13048. It counts as functional. The settings on record: Enterobacter aerogenes.
Assay [2] concerns the target T1, DNA gyrase (Escherichia coli). The experiment in a line: In vitro antibacterial against gram-negative organism Escherichia coli JUHL. It counts as functional. The settings on record: Escherichia coli K-12.
For assay [3] the target is unchanged. The experiment in a line: In vitro antibacterial activity against gram-negative organism Klebsiella pneumoniae ATCC 8045. In kind it is functional.
For assay [4] the target is unchanged. The experiment in a line: In vitro antibacterial activity against gram-negative organism Prov. stuartii CMX-640. It counts as functional. The settings on record: Providencia stuartii.
Assay [5] is described as follows: In vitro antibacterial activity against gram-negative organism Pseudomonas aeruginosa 5007. The settings on record: Pseudomonas aeruginosa; read-out: MIC. It counts as functional.
Assay [6] can be described thus: In vitro antibacterial activity against gram-negative organism Pseudomonas aeruginosa DPHD-2862. In kind it is functional. The settings on record: Pseudomonas aeruginosa; read-out: MIC.
For assay [7], the target named is T2, DNA gyrase (Staphylococcus aureus) (UniProt P0A0K8+P20831). The experiment in a line: In vitro antibacterial activity against gram-positive organism Staphylococcus aureus 1775. It counts as functional.
The target of assay [8] is T2, DNA gyrase (Staphylococcus aureus). The experiment in a line: In vitro antibacterial activity against gram-positive organism Staphylococcus aureus ATCC 6538p. It counts as functional.
The target is the same in assay [9]. The experiment in a line: In vitro antibacterial activity against gram-positive organism Staphylococcus aureus NCTC-10649M. In kind it is functional.
Assay [10] addresses T1, DNA gyrase (Escherichia coli). The experiment in a line: In vitro antibacterial activity against gram-positive organism Streptococcus bovis A-5169. To be noted: Streptococcus equinus. It counts as functional.
In a further assay the test system is Streptococcus pyogenes. The experiment in a line: In vitro antibacterial activity against gram-positive organism Streptococcus pyogenes EES61. In kind it is functional. To be noted: Streptococcus pyogenes; read-out: MIC.
Assay [11] has as its target T1, DNA gyrase (Escherichia coli). The experiment in a line: In vitro antibacterial activity against gram-positive organism Enterococcus faecium ATCC 8043. In kind it is functional.
For assay [12] the target is unchanged. To be noted: Escherichia coli K-12.
Description: Concentration which causes 50% of the gyrase (Escherichia coli H560)-mediated maximal DNA cleavage.

T2 sequence (P0A0K8 2-644 limits assumed): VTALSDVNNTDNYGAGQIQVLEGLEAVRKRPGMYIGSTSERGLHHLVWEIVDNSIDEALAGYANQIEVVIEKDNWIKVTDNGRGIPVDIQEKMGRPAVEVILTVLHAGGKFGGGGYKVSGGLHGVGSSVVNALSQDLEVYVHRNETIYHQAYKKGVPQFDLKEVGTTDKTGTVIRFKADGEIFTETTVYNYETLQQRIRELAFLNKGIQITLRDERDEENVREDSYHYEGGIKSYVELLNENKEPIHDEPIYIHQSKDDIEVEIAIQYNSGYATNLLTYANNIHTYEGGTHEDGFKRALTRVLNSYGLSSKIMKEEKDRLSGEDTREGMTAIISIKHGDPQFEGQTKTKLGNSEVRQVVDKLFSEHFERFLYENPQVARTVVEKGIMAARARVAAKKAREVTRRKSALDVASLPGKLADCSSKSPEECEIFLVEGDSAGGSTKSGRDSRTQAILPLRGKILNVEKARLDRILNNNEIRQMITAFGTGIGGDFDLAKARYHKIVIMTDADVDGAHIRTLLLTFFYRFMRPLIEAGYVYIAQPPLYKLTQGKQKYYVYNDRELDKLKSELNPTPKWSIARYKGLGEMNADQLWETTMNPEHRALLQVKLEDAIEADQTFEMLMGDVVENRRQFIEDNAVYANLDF
T2 sequence (P20831 whole entry partner): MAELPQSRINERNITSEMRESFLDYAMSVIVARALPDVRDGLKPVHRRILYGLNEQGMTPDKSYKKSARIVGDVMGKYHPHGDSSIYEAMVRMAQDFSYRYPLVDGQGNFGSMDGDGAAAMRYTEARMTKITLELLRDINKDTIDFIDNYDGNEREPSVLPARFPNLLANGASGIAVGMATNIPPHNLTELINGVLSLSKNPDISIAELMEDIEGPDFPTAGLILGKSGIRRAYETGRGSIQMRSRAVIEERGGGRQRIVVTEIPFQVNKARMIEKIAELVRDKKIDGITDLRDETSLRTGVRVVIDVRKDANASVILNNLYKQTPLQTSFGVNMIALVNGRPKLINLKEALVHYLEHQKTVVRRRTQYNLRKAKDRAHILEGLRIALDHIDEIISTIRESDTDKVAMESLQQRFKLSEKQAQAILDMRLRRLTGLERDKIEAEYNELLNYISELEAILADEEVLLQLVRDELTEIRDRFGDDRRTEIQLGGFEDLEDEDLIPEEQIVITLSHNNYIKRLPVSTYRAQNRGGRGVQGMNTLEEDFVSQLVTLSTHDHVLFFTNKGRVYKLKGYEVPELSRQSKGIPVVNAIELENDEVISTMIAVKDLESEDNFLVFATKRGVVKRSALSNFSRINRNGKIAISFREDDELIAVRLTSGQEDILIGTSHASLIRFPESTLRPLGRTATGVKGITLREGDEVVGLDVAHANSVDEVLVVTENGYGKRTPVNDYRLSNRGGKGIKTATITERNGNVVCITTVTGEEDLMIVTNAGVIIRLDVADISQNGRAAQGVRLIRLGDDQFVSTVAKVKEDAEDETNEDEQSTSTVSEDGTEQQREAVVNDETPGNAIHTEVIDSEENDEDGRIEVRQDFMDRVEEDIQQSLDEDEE

Turning to `Cc1c(N2C[C@@H](N)C[C@H]2C)c(F)cn2c(=O)c(C(=O)O)cc(C3CC3)c12`, the MIC in assay [1] came out at 0.1 µg/mL (≈ 0.278 µM); in [2], 0.1 µg/mL (≈ 0.278 µM); in [3], 0.01 µg/mL (≈ 0.0278 µM); in assay [4], 3.1 µg/mL (≈ 8.63 µM); in [5], 0.78 µg/mL (≈ 2.17 µM); in [6], 3.1 µg/mL (≈ 8.63 µM). Also, the MIC in assay [7] came to 0.78 µg/mL (≈ 2.17 µM); in [8], 0.01 µg/mL (≈ 0.0278 µM); in assay [9], 0.02 µg/mL (≈ 0.0556 µM); in [10], 0.1 µg/mL (≈ 0.278 µM); in the assay with Streptococcus pyogenes it was 0.2 µg/mL (≈ 0.556 µM); in assay [11], 0.05 µg/mL (≈ 0.139 µM).
For `COc1ccc(-c2cc(C(=O)O)c(=O)n3cc(F)c(N4CCC(N)C4)nc23)cc1` (stereo not given), the MIC in assay [1] is 25 µg/mL (≈ 62.8 µM); in assay [2] it was 25 µg/mL (≈ 62.8 µM); in assay [3], 12.5 µg/mL (≈ 31.4 µM); in assay [4], more than 100 µg/mL; in [5] it was 100 µg/mL (≈ 251 µM); in assay [6], 50 µg/mL (≈ 126 µM). Moreover, the MIC in assay [7] worked out at 100 µg/mL (≈ 251 µM); in [8], 50 µg/mL (≈ 126 µM); in assay [9], 50 µg/mL (≈ 126 µM); in assay [10], 25 µg/mL (≈ 62.8 µM); in the assay on Streptococcus pyogenes, 25 µg/mL (≈ 62.8 µM); in [11], 25 µg/mL (≈ 62.8 µM).
Consider `CCc1cc(C(=O)O)c(=O)n2ccc(N3CCC(N)C3)cc12.Cl` (stereo not given), for which the MIC was 3.1 µg/mL in assay [1]; 3.1 µg/mL in [2]; 3.1 µg/mL in assay [3]; 25 µg/mL in assay [4]; 6.2 µg/mL in [5]; 3.1 µg/mL in [8]. Further, the MIC in assay [9] worked out at 6.2 µg/mL; in [10], 25 µg/mL; with Streptococcus pyogenes, 25 µg/mL; in assay [11] it was 50 µg/mL.
`CN1CCN(c2nc3c(-c4ccc(F)cc4)cc(C(=O)O)c(=O)n3cc2F)CC1`: the MIC is 0.78 µg/mL (≈ 1.95 µM) in [1]; 0.39 µg/mL (≈ 0.974 µM) in assay [2]; 0.2 µg/mL (≈ 0.5 µM) in [3]; 25 µg/mL (≈ 62.4 µM) in [4]; 6.2 µg/mL (≈ 15.5 µM) in [5]; 25 µg/mL (≈ 62.4 µM) in assay [7]. Besides, the MIC in [8] stood at 0.39 µg/mL (≈ 0.974 µM); in assay [9], 0.39 µg/mL (≈ 0.974 µM); in assay [10], 25 µg/mL (≈ 62.4 µM); in the assay with Streptococcus pyogenes, 6.2 µg/mL (≈ 15.5 µM); in [11], 25 µg/mL (≈ 62.4 µM).
Consider `Cc1c(N2CCCNCC2)c(F)cn2c(=O)c(C(=O)O)cc(C3CC3)c12`, for which the MIC in assay [1] was found to be 0.1 µg/mL (≈ 0.278 µM); in [2] it was 0.02 µg/mL (≈ 0.0556 µM); in [3], 0.05 µg/mL (≈ 0.139 µM); in assay [4], 3.1 µg/mL (≈ 8.63 µM); in assay [5] it was 0.78 µg/mL (≈ 2.17 µM); in assay [6] it was 6.2 µg/mL (≈ 17.3 µM). The MIC in assay [7] was 25 µg/mL (≈ 69.6 µM); in assay [8], 0.1 µg/mL (≈ 0.278 µM); in [9], 0.2 µg/mL (≈ 0.556 µM); in [10], 0.78 µg/mL (≈ 2.17 µM); with Streptococcus pyogenes, 0.39 µg/mL (≈ 1.09 µM); in assay [11], 0.2 µg/mL (≈ 0.556 µM).
`Cc1c(-n2ccnc2)c(F)cn2c(=O)c(C(=O)O)cc(C3CC3)c12`: the MIC in assay [1] is 0.39 µg/mL (≈ 1.19 µM); in assay [2], 0.39 µg/mL (≈ 1.19 µM); in assay [3], 0.2 µg/mL (≈ 0.611 µM); in assay [4], 12.5 µg/mL (≈ 38.2 µM); in [5], 6.2 µg/mL (≈ 18.9 µM); in assay [6] it was more than 100 µg/mL. Moreover, the MIC in assay [7] was 6.2 µg/mL (≈ 18.9 µM); in assay [8], 0.1 µg/mL (≈ 0.306 µM); in assay [9], 0.2 µg/mL (≈ 0.611 µM); in the assay with Streptococcus pyogenes it was 1.56 µg/mL (≈ 4.77 µM); in [11] it was 0.39 µg/mL (≈ 1.19 µM). This compound returned a CC50 in assay [12] of 0.3 µg/mL (≈ 0.917 µM).
In the case of `CO[C@@H]1CN(c2c(F)cn3c(=O)c(C(=O)O)cc(C4CC4)c3c2C)C[C@H]1N`, the MIC amounted to 0.2 µg/mL (≈ 0.533 µM) in assay [1]; 0.05 µg/mL (≈ 0.133 µM) in assay [2]; 0.05 µg/mL (≈ 0.133 µM) in assay [3]; 3.1 µg/mL (≈ 8.26 µM) in assay [4]; 1.56 µg/mL (≈ 4.16 µM) in [5]; 25 µg/mL (≈ 66.6 µM) in assay [6]. Further, the MIC in [7] turned out to be 3.1 µg/mL (≈ 8.26 µM); in [8] it was 0.05 µg/mL (≈ 0.133 µM); in assay [9] it was 0.05 µg/mL (≈ 0.133 µM); in assay [10], 0.39 µg/mL (≈ 1.04 µM); in the assay with Streptococcus pyogenes, 0.39 µg/mL (≈ 1.04 µM); in assay [11], 0.39 µg/mL (≈ 1.04 µM).
`Cc1ccc(S(=O)(=O)O)cc1.NC1CCN(c2nc3c(cc2F)c(=O)c(C(=O)O)cn3-c2ccc(F)cc2F)C1` (stereo not given) [TOSUFLOXACIN TOSYLATE]: the MIC in assay [1] was 0.05 µg/mL; in assay [2], 0.05 µg/mL; in [3] it was 0.02 µg/mL; in assay [4], 1.56 µg/mL; in [5] it was 0.39 µg/mL; in assay [6] it was more than 100 µg/mL. In addition, the MIC was more than 100 µg/mL in [7]; 0.05 µg/mL in [8]; 0.05 µg/mL in [9]; 0.78 µg/mL in assay [10]; 0.39 µg/mL with Streptococcus pyogenes; 0.2 µg/mL in assay [11].
Consider `Cc1c(N2C[C@@H]3C[C@H]2CN3)c(F)cn2c(=O)c(C(=O)O)cc(C3CC3)c12`, for which the MIC in [1] is 0.1 µg/mL (≈ 0.28 µM); in [2], 0.02 µg/mL (≈ 0.056 µM); in assay [3] it was 0.05 µg/mL (≈ 0.14 µM); in assay [4], 0.78 µg/mL (≈ 2.18 µM); in assay [5], 0.2 µg/mL (≈ 0.56 µM); in [6], 6.2 µg/mL (≈ 17.3 µM). Further, the MIC in assay [7] is 6.2 µg/mL (≈ 17.3 µM); in assay [8], 0.1 µg/mL (≈ 0.28 µM); in assay [9], 0.2 µg/mL (≈ 0.56 µM); in assay [10], 0.39 µg/mL (≈ 1.09 µM); in the assay with Streptococcus pyogenes, 0.2 µg/mL (≈ 0.56 µM); in [11] it was 0.2 µg/mL (≈ 0.56 µM).
